Patent publication US20260256792A1, “TREATMENT OF CHRONIC SPONTANEOUS URTICARIA BY ADMINISTERING (R)-2-[3-[4-AMINO-3-(2-FLUORO-4-PHENOXY-PHENYL)PYRAZOLO[3,4-D]PYRIMIDIN-1-YL]PIPERIDINE-1-CARBONYL]-4-METHYL-4-[4-(OXETAN-3-YL)PIPERAZIN-1-YL]PENT-2-ENENITRILE” (priority 2023, published 2026)

Test system: moderate-to-severe chronic spontaneous urticaria (CSU)
Test: Phase 2 CSU study: urticaria activity score over 7 days (UAS7)
Assay type: in vivo, human
Settings: ITT, 400 mg BID
Description: The study comprises a 12 week, randomized, double-blind, placebo-controlled, multi-center, dose-ranging efficacy and safety phase, followed by a 40 week open label extension (OLE) phase (see FIG. 1). The study consists of three phases and an optional OLE phase. […] Clinically, CSU is characterized by the spontaneous and recurrent appearance of pruritic hives. The proposed primary endpoints were the UAS7 at Week 12 in EU and EU reference countries and the ISS7 in the US. Regardless of where a participant was from, all assessments were the same. The UAS7 score is a composite score containing both the HSS7 and the ISS7. This allowed a global assessment of the two key components of urticaria: hives and itch. […] The UAS is a validated PRO measure. […] The daily UAS scores range from 0 to 6 point/day. […] Patients were to complete the UAS using the e-diary. […] The following secondary endpoints were to be analyzed using the same approach as for the primary endpoint: • Change from baseline in UAS7 at Week 4 • Change from baseline in UAS7 at Week 12 (for US and US reference countries) • Change from baseline in ISS7 at Week 12 (except US and US reference countries) • Change from baseline in HSS7 at Week 12 The following responder secondary endpoints were to be analyzed using the Cochran-Mantel-Haenszel test adjusted by region: • Proportion of participants with UAS7<6 at Week 12 • Proportion of participants with UAS7=0 at Week 12 Participants who received selected prohibited medications and/or rescue medications were to be considered as non-responders for time points after the medication usage. For other participants, all available data including those collected during the off-treatment period were to be used to determine the responder/non-responder status. Missing data were to be considered as non-responders.

SMILES: CC(C)(C=C(C#N)C(=O)N1CCC[C@@H](n2nc(-c3ccc(Oc4ccccc4)cc3F)c3c(N)ncnc32)C1)N1CCN(C2COC2)CC1 [rilzabrutinib, (R)-2-[3-[4-amino-3-(2-fluoro-4-phenoxy-phenyl)pyrazolo[3,4-d]pyrimidin-1-yl]piperidine-1-carbonyl]-4-methyl-4-[4-(oxetan-3-yl)piperazin-1-yl]pent-2-enenitrile]
- OR for rilzabrutinib vs. placebo, UAS7 ≤6 (Week 4): 2.948
- RRD (%) for rilzabrutinib vs. placebo, UAS7 = 0 (Week 4): 1.3 %
- RRD (%) for rilzabrutinib vs. placebo, UAS7 ≤6 (Week 4): 16.7 %
- Responder n (%), UAS7 = 0 (Week 4): 3 (7.3) n (%)
- Responder n (%), UAS7 ≤6 (Week 4): 13 (31.7) n (%)
- Imputed non-responder n (%), UAS7 = 0 (Week 5): 5 (12.2) n (%)
- Imputed non-responder n (%), UAS7 ≤6 (Week 5): 5 (12.2) n (%)
- Non-responder n (%), UAS7 = 0 (Week 5): 35 (85.4) n (%)
- Non-responder n (%), UAS7 ≤6 (Week 5): 28 (68.3) n (%)
- OR for rilzabrutinib vs. placebo, UAS7 = 0 (Week 5): 6.024
- OR for rilzabrutinib vs. placebo, UAS7 ≤6 (Week 5): 8.203
- RRD (%) for rilzabrutinib vs. placebo, UAS7 ≤6 (Week 5): 24.3 %
- Responder n (%), UAS7 = 0 (Week 5): 6 (14.6) n (%)
- Responder n (%), UAS7 ≤6 (Week 5): 13 (31.7) n (%)
- Imputed non-responder n (%), UAS7 = 0 (Week 6): 4 (9.8) n (%)
- Imputed non-responder n (%), UAS7 ≤6 (Week 6): 4 (9.8) n (%)
- Non-responder n (%), UAS7 = 0 (Week 6): 36 (87.8) n (%)
- Non-responder n (%), UAS7 ≤6 (Week 6): 29 (70.7) n (%)
- OR for rilzabrutinib vs. placebo, UAS7 = 0 (Week 6): 4.821
- OR for rilzabrutinib vs. placebo, UAS7 ≤6 (Week 6): 2.329
- RRD (%) for rilzabrutinib vs. placebo, UAS7 = 0 (Week 6): 8.4 %
- RRD (%) for rilzabrutinib vs. placebo, UAS7 ≤6 (Week 6): 13.6 %
- Responder n (%), UAS7 = 0 (Week 6): 5 (12.2) n (%)
- Responder n (%), UAS7 ≤6 (Week 6): 12 (29.3) n (%)
- Imputed non-responder n (%), UAS7 = 0 (Week 7): 4 (9.8) n (%)
- Imputed non-responder n (%), UAS7 ≤6 (Week 7): 4 (9.8) n (%)
- Non-responder n (%), UAS7 = 0 (Week 7): 35 (85.4) n (%)
- Non-responder n (%), UAS7 ≤6 (Week 7): 29 (70.7) n (%)
- OR for rilzabrutinib vs. placebo, UAS7 = 0 (Week 7): 6.024
- OR for rilzabrutinib vs. placebo, UAS7 ≤6 (Week 7): 3.425
- RRD (%) for rilzabrutinib vs. placebo, UAS7 ≤6 (Week 7): 17.8 %
- Responder n (%), UAS7 = 0 (Week 7): 6 (14.6) n (%)
- Responder n (%), UAS7 ≤6 (Week 7): 12 (29.3) n (%)
- Imputed non-responder n (%), UAS7 = 0 (Week 8): 5 (12.2) n (%)
- Imputed non-responder n (%), UAS7 ≤6 (Week 8): 5 (12.2) n (%)
- Non-responder n (%), UAS7 = 0 (Week 8): 33 (80.5) n (%)
- Non-responder n (%), UAS7 ≤6 (Week 8): 25 (61.0) n (%)
- OR for rilzabrutinib vs. placebo, UAS7 = 0 (Week 8): 4.083
- OR for rilzabrutinib vs. placebo, UAS7 ≤6 (Week 8): 3.297
- RRD (%) for rilzabrutinib vs. placebo, UAS7 = 0 (Week 8): 13.4 %
- RRD (%) for rilzabrutinib vs. placebo, UAS7 ≤6 (Week 8): 21.8 %
- Responder n (%), UAS7 = 0 (Week 8): 8 (19.5) n (%)
- Responder n (%), UAS7 ≤6 (Week 8): 16 (39.0) n (%)
- Imputed non-responder n (%), UAS7 = 0 (Week 9): 9 (22.0) n (%)
- Imputed non-responder n (%), UAS7 ≤6 (Week 9): 9 (22.0) n (%)
- Non-responder n (%), UAS7 = 0 (Week 9): 33 (80.5) n (%)
- Non-responder n (%), UAS7 ≤6 (Week 9): 28 (68.3) n (%)
- OR for rilzabrutinib vs. placebo, UAS7 = 0 (Week 9): 2.914
- OR for rilzabrutinib vs. placebo, UAS7 ≤6 (Week 9): 3.540
- RRD (%) for rilzabrutinib vs. placebo, UAS7 = 0 (Week 9): 11.3 %
- RRD (%) for rilzabrutinib vs. placebo, UAS7 ≤6 (Week 9): 19.4 %
- Responder n (%), UAS7 = 0 (Week 9): 8 (19.5) n (%)
- Responder n (%), UAS7 ≤6 (Week 9): 13 (31.7) n (%)
- Imputed non-responder n (%), UAS7 = 0 (Week 10): 10 (24.4) n (%)
- Imputed non-responder n (%), UAS7 ≤6 (Week 10): 10 (24.4) n (%)
- Non-responder n (%), UAS7 = 0 (Week 10): 32 (78.0) n (%)
- Non-responder n (%), UAS7 ≤6 (Week 10): 29 (70.7) n (%)
- OR for rilzabrutinib vs. placebo, UAS7 = 0 (Week 10): 2.322
- OR for rilzabrutinib vs. placebo, UAS7 ≤6 (Week 10): 1.699
- RRD (%) for rilzabrutinib vs. placebo, UAS7 = 0 (Week 10): 10.9 %
- RRD (%) for rilzabrutinib vs. placebo, UAS7 ≤6 (Week 10): 8.6 %
- Responder n (%), UAS7 = 0 (Week 10): 9 (22.0) n (%)
- Responder n (%), UAS7 ≤6 (Week 10): 12 (29.3) n (%)
- Imputed non-responder n (%), UAS7 = 0 (Week 11): 9 (22.0) n (%)
- Imputed non-responder n (%), UAS7 ≤6 (Week 11): 9 (22.0) n (%)
- Non-responder n (%), UAS7 = 0 (Week 11): 35 (85.4) n (%)
